Legend:
CYP 2C19 = CYP 2C19 (Homo sapiens, UniProt P33261); assay: Kinetics of fluorogenic substrates with CYP 2C19; type: biochemical; settings: for type of kinetics / conversion to the same fluorescent product vs the most closely structurally-related substrate / kcat / kcat/Km: CYP 2C19; for v (1.25 uM), turnover rate at 1.25 μM: CYP 2C19, substrate 1.25 uM; for v (10 uM), turnover rate at 10 μM: CYP 2C19, substrate 10 uM
CYP 2C9 = CYP 2C9 (Homo sapiens, UniProt P11712); assay: Kinetics of fluorogenic substrates with CYP 2C9; type: biochemical; settings: for kcat / kcat/Km / type of kinetics / conversion to the same fluorescent product vs the most closely structurally-related substrate: CYP 2C9; for v (1.25 uM), turnover rate at 1.25 μM: CYP 2C9, substrate 1.25 uM; for v (10 uM), turnover rate at 10 μM: CYP 2C9, substrate 10 uM
CYP 3A4 = molecular target: T1, CYP 3A4 (Homo sapiens, UniProt P08684); assay: Kinetics of fluorogenic substrates with CYP 3A4; type: biochemical; settings: for conversion to the same fluorescent product vs the most closely structurally-related substrate / type of kinetics / kcat / kcat/Km: CYP 3A4; for v (1.25 uM), turnover rate at 1.25 μM: CYP 3A4, substrate 1.25 uM; for v (10 uM), turnover rate at 10 μM: CYP 3A4, substrate 10 uM
T1 construct: NADPH regenerating system
Description: Whichever of the four abstractable hydrogen atoms (designated H^1 and H^2 in this representation of BOMR) is removed in the initial reaction step, with reference to Reaction Scheme 1 of FIG. 1, the hydroxylation product will spontaneously decompose to the free resorufin dye. In addition, the benzyloxy group, attached to the carbon carrying the two hydrogens designated H^2, contributes an inductive electronic effect on that carbon, which can stabilize the radical formed during abstraction of one of the H^2 hydrogens by a cytochrome P450.
Optimization of assay conditions was, and is preferably, accomplished through statistically validated Design of Experiments methodologies, using the commercial software package "Design-Expert®" produced by Stat-Ease® Inc. The data shown in FIGS. 4 and 5 were obtained with initial optimization.
For further understanding these terms in the context of this invention, attention is directed to FIG. 4 and the analysis of FIG. 4.

CYP 2B6 = molecular target: T2, CYP 2B6 (Homo sapiens, UniProt P20813)
T2 sequence (P20813 1-491): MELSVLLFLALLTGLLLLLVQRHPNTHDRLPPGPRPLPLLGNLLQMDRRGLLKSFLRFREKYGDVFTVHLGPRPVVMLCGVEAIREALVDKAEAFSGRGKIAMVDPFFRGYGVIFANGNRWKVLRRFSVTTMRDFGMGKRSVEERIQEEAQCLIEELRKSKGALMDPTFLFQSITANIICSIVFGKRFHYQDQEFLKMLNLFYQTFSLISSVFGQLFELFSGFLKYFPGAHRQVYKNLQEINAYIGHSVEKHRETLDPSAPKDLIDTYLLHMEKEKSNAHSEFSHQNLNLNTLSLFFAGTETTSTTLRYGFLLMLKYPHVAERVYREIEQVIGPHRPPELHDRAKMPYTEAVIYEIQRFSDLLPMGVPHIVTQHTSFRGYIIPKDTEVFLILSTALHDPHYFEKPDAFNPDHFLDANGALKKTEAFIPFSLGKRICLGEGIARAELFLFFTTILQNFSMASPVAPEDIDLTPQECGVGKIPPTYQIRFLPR

CYP 2D6 = CYP 2D6 (Homo sapiens, UniProt P10635); assay: Kinetics of fluorogenic substrates with CYP 2D6; type: biochemical; settings: for kcat / kcat/Km: CYP 2D6; for v (1.25 uM), turnover rate at 1.25 μM: CYP 2D6, substrate 1.25 uM; for v (10 uM), turnover rate at 10 μM: CYP 2D6, substrate 10 uM
[1] = in parentheses: from Michaelis-Menten fit (sigmoidal kinetics)

T1 sequence (P08684 whole entry): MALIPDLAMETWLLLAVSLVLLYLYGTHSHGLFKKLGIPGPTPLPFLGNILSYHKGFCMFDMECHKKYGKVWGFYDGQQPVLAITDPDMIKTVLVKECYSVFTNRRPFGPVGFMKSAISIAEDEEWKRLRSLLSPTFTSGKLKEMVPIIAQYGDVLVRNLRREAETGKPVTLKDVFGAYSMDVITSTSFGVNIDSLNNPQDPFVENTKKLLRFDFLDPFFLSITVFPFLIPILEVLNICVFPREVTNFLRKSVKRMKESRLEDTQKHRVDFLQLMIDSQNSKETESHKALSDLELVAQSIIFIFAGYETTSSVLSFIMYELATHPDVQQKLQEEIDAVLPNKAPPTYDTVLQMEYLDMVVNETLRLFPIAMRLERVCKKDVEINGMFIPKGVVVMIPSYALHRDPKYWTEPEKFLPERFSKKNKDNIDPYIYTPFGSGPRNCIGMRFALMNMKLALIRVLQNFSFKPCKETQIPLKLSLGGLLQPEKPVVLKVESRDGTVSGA
CYP 2C9, sequence (P11712 whole entry): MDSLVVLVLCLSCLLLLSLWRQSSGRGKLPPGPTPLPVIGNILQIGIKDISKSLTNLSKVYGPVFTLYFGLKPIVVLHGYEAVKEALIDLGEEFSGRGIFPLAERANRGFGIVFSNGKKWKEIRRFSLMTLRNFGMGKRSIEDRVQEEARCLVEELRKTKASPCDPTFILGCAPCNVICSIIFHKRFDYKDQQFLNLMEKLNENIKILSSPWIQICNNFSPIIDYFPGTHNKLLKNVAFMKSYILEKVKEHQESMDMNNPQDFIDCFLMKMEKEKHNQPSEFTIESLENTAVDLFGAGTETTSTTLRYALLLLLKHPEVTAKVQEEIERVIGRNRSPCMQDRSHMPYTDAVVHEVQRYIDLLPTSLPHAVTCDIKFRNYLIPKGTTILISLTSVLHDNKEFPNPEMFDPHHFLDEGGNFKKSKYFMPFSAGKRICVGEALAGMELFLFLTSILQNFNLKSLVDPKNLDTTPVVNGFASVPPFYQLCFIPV
CYP 2C19, sequence (P33261 whole entry): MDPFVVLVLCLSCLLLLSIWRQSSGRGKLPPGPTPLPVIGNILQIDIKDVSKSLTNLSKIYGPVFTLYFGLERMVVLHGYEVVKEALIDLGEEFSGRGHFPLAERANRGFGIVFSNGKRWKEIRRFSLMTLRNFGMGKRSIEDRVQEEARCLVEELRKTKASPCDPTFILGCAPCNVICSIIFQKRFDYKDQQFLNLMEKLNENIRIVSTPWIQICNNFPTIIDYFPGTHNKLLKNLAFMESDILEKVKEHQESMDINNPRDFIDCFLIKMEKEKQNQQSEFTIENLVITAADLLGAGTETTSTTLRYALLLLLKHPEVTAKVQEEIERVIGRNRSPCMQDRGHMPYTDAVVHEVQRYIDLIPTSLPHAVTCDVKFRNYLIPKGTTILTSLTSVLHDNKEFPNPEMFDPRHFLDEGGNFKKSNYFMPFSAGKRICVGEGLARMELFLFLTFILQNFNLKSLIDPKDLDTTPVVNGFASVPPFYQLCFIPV
CYP 2D6, sequence (P10635 whole entry): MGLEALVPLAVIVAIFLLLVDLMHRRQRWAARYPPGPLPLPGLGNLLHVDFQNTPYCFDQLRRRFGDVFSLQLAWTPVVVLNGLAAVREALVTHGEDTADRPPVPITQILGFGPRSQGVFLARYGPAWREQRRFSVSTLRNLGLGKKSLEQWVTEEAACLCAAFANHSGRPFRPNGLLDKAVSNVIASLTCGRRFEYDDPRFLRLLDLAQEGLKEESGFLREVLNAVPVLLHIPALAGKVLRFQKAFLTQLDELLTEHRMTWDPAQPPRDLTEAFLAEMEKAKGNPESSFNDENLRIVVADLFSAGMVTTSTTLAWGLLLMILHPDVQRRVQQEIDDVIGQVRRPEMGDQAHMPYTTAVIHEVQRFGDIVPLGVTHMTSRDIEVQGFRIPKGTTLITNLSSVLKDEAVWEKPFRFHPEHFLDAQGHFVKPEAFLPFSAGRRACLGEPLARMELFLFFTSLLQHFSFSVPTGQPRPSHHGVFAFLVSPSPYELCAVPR

| SMILES | v (1.25 uM), turnover rate at 1.25 μM (CYP 2C19) [min⁻¹] | v (10 uM), turnover rate at 10 μM (CYP 2C19) [min⁻¹] | v (1.25 uM), turnover rate at 1.25 μM (CYP 2C9) [min⁻¹] | v (10 uM), turnover rate at 10 μM (CYP 2C9) [min⁻¹] | type of kinetics (CYP 3A4) | v (1.25 uM), turnover rate at 1.25 μM (CYP 3A4) [min⁻¹] | v (10 uM), turnover rate at 10 μM (CYP 3A4) [min⁻¹] | kcat (CYP 2C19) [min⁻¹] | kcat/Km (CYP 2C19) [s⁻¹ M⁻¹] | kcat (CYP 3A4) [min⁻¹] | kcat/Km (CYP 3A4) [s⁻¹ M⁻¹] | other results |
| --- | --- | --- | --- | --- | --- | --- | --- | --- | --- | --- | --- | --- |
| COc1ccc2cc(C#N)c(=O)oc2c1 [3CMC, 3-cyano-7-methoxycoumarin, reference compound] | 0.01 | 0.07 | 0.00 | 0.04 |  |  |  |  |  |  |  | type of kinetics (CYP 2C19): linear; kcat (CYP 2C9): 0.4 min⁻¹; kcat/Km (CYP 2C9): 85 s⁻¹ M⁻¹; type of kinetics (CYP 2C9): linear |
| N#Cc1cc2ccc(OCOCc3ccccc3)cc2oc1=O [BOMCC, 7-Benzyloxymethyloxy-3-cyanocoumarin] | 0.16 | 0.68 | 0.04 | 0.42 | sigmoidal | 0.12 | 0.98 | 1.9 | 2262 |  |  | conversion to the same fluorescent product vs the most closely structurally-related substrate (CYP 3A4): more efficient conversion; kcat (CYP 3A4; [1]): 10.0 min⁻¹; kcat/Km (CYP 3A4; [1]): 1873 s⁻¹ M⁻¹; conversion to the same fluorescent product vs the most closely structurally-related substrate (CYP 2C19): more efficient conversion; type of kinetics (CYP 2C19): Michaelis-; conversion to the same fluorescent product vs the most closely structurally-related substrate (CYP 2C9): more efficient conversion; kcat (CYP 2C9): 2.1 min⁻¹; type of kinetics (CYP 2C9): Michaelis-; conversion to the same fluorescent product vs the most closely structurally-related substrate (CYP 2B6): more efficient conversion; kcat (CYP 2B6): 66.0 min⁻¹; kcat/Km (CYP 2B6): 21154 s⁻¹ M⁻¹; type of kinetics (CYP 2B6): Michaelis-; v (1.25 uM), turnover rate at 1.25 μM (CYP 2B6): 0.38 min⁻¹; v (10 uM), turnover rate at 10 μM (CYP 2B6): 3.05 min⁻¹ |
| CCN(CC)Cc1cc(=O)oc2cc(OC)ccc12 [DMMC] | 0.03 | 0.23 |  |  |  |  |  | 0.4 | 784 |  |  |  |
| O=c1cc(C(F)(F)F)c2ccc(OCc3ccccc3)cc2o1 [BFC, 7-Benzyloxy-4-trifluoromethylcoumarin, reference compound] |  |  |  |  | linear | 0.04 | 0.81 |  |  |  |  |  |
| O=C(OCc1ccccc1)c1c2oc3cc(OCc4ccccc4)ccc3nc-2ccc1=O [BRCBE] |  |  |  |  |  | 0.1992 | 0.6241 |  |  | 0.83 | 5123 |  |
| COCOc1ccc2cc(C#N)c(=O)oc2c1 [MOMCC] | 0.14 | 0.38 | 0.01 | 0.07 |  |  |  | 0.5 | 2604 |  |  | conversion to the same fluorescent product vs the most closely structurally-related substrate (CYP 2C19): more efficient conversion; type of kinetics (CYP 2C19): Michaelis-; conversion to the same fluorescent product vs the most closely structurally-related substrate (CYP 2C9): more efficient conversion; kcat (CYP 2C9): 0.2 min⁻¹; kcat/Km (CYP 2C9): 167 s⁻¹ M⁻¹; type of kinetics (CYP 2C9): Michaelis |
| CCOCOc1ccc2nc3ccc(=O)cc-3oc2c1 [EOMR] |  |  |  |  | Michaelis- | 0.03 | 0.10 |  |  | 0.1 |  | conversion to the same fluorescent product vs the most closely structurally-related substrate (CYP 3A4): more efficient conversion |
| COCOc1ccc2nc3ccc(=O)cc-3oc2c1 [MOMR] | 0.06 | 0.062 |  |  |  | 0.0083 | 0.0338 |  |  | 0.06 | 167 | kcat (CYP 2D6): 0.34 min⁻¹; kcat/Km (CYP 2D6): 708 s⁻¹ M⁻¹; v (1.25 uM), turnover rate at 1.25 μM (CYP 2D6): 0.03396 min⁻¹; v (10 uM), turnover rate at 10 μM (CYP 2D6): 0.2146 min⁻¹ |
| CCCCCCCCOCOc1ccc2nc3ccc(=O)cc-3oc2c1 [OOMR, Octyloxymethylresorufin] | 0.1 | 0.13 | 0.137 | 0.31 |  | 0.323 | 0.601 | 0.17 | 4048 | 0.66 | 7857 | kcat (CYP 2C9): 0.4 min⁻¹; kcat/Km (CYP 2C9): 2564 s⁻¹ M⁻¹ |
| CC(C)Oc1ccc2cc(C#N)c(=O)oc2c1 [IPCC] | 0.027 | 0.232 |  |  |  |  |  | 1.95 | 568 |  |  | kcat (CYP 2D6): 0.1 min⁻¹; kcat/Km (CYP 2D6): 93 s⁻¹ M⁻¹; v (1.25 uM), turnover rate at 1.25 μM (CYP 2D6): 0.0076 min⁻¹; v (10 uM), turnover rate at 10 μM (CYP 2D6): 0.0378 min⁻¹ |
| O=c1cc(C(F)(F)F)c2ccc(OCOCc3ccccc3)cc2o1 [BOMFC] |  |  |  |  | Michaelis- | 0.11 | 1.41 |  |  | 4.0 |  | conversion to the same fluorescent product vs the most closely structurally-related substrate (CYP 3A4): more efficient conversion |
| CCCCCCCCOCOc1ccc2cc(C#N)c(=O)oc2c1 [OOMCC] | 0.179 | 1.043 |  |  |  | 0.2274 | 0.981 | 1.7 | 4106 | 1.19 | 4506 |  |
| N#Cc1cc2ccc(OCc3ccccc3)cc2oc1=O [BCC, 7-Benzyloxy-3-cyanocoumarin, reference compound] | 0.02 | 0.06 | 0.00 | 0.00 |  |  |  | 0.1 | 234 |  |  | type of kinetics (CYP 2C19): Michaelis-; kcat (CYP 2B6): 0.1 min⁻¹; kcat/Km (CYP 2B6): 1064 s⁻¹ M⁻¹; type of kinetics (CYP 2B6): Michaelis-; v (1.25 uM), turnover rate at 1.25 μM (CYP 2B6): 0.04 min⁻¹; v (10 uM), turnover rate at 10 μM (CYP 2B6): 0.07 min⁻¹ |
| O=c1ccc2nc3ccc(OCOCc4ccccc4)cc3oc-2c1 [BOMR, Benzyloxymethylresorufin] |  |  |  |  | Michaelis- | 0.55 | 0.88 |  |  | 1.1 | 13095 | conversion to the same fluorescent product vs the most closely structurally-related substrate (CYP 3A4): more efficient conversion; turnover rate (kcat) (CYP 3A4; CYP 3A4, FIG. 4 data): 0.5 s⁻¹; CYP 3A4 turnover rate of BOMR relative to BR (CYP 3A4; FIG. 4 data): approximately five times greater; enzymatic efficiency (kcat /Km) of CYP 3A4 towards BOMR relative to BR (CYP 3A4; FIG. 4 data): 14 times; conversion to the same fluorescent product vs the most closely structurally-related substrate (CYP 2B6): more efficient conversion; kcat (CYP 2B6): 0.8 min⁻¹; kcat/Km (CYP 2B6): 18265 s⁻¹ M⁻¹; type of kinetics (CYP 2B6): Michaelis-; v (1.25 uM), turnover rate at 1.25 μM (CYP 2B6): 0.28 min⁻¹; v (10 uM), turnover rate at 10 μM (CYP 2B6): 0.71 min⁻¹ |
| CC1(C)C2=C(Cl)C(=O)C(Cl)=CC2=Nc2ccc(OCOCc3ccccc3)cc21 [BOMDDAO] |  |  |  |  |  | 0.4402 | 4.2041 |  |  | 6 | 14286 |  |

— patent US6143492A, “Optical molecular sensors for cytochrome P450 activity” (Aurora Biosciences Corporation, priority 1999, dated 2000)
